Reference: patent US9376380B2 (University of Pittsburgh—Of the Commonwealth System of …, priority 2011, dated 2016)
Read-outs that look alike come from different tables or passages of the source.

Target: CB2 receptor (Homo sapiens, UniProt P34972)
Test: [3H]CP-55,940 radioligand competition binding, CB2
Design: host or cells: cell membrane preparations
Details: for SI: selectivity index for CB2: Ki(CB1)/Ki(CB2) ratio
[1] = [3H]CP-55,940 displacement, read-out: Ki (CB2)

Chain of CB2 receptor (P34972 whole entry): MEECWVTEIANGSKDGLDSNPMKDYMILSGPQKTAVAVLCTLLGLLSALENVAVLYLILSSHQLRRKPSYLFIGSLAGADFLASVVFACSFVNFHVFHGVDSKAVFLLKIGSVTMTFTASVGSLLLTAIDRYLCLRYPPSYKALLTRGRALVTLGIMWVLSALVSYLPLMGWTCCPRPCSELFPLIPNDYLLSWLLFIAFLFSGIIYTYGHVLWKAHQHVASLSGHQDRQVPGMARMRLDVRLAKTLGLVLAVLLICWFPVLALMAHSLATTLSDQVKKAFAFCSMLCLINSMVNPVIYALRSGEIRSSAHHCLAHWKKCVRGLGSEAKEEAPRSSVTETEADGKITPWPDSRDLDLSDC

SMILES | SI: selectivity index for CB2 | Ki [1] | Ki
CCN(CC)c1ccc(CNC23CC4CC(CC(C4)C2)C3)cc1 [B, (3s,5s,7s)-N-(4-(Diethylamino)benzyl)adamantan-1-amine] | 130 | 20 µM | 
O=C(Cc1ccccc1)NC(NC(=O)Cc1ccccc1)c1ccccc1 [Compound 2, N,N′-(phenylmethylene)bis(2-phenylacetamide)] |  | 9.93 µM | 
O=C(Cc1ccccc1)NC(NC(=O)Cc1ccccc1)c1ccccc1F [Compound 3, N,N′-((2-fluorophenyl)methylene)bis(2-phenylacetamide)] |  | 35.3 µM | 
O=C(Cc1ccccc1)NC(NC(=O)Cc1ccccc1)c1cccc(F)c1 [Compound 4, N,N′-((3-fluorophenyl)methylene)bis(2-phenylacetamide)] |  | 12.7 µM | 
O=C(Cc1ccccc1)NC(NC(=O)Cc1ccccc1)c1ccc(F)cc1 [Compound 5, N,N′-((4-fluorophenyl)methylene)bis(2-phenylacetamide)] |  | 10.9 µM | 
O=C(Cc1ccccc1)NC(NC(=O)Cc1ccccc1)c1ccc(Br)cc1 [Compound 7, N,N′-((4-bromophenyl)methylene)bis(2-phenylacetamide)] |  | 2.23 µM | 
CCOc1ccc(C(NC(=O)Cc2ccccc2)NC(=O)Cc2ccccc2)cc1 [Compound 11, N,N′-((4-ethoxyphenyl)methylene)bis(2-phenylacetamide)] |  | 1.5 µM | 
O=C(Cc1ccccc1)NC(NC(=O)Cc1ccccc1)c1ccc([N+](=O)[O-])cc1 [Compound 15, N,N′-((4-nitrophenyl)methylene)bis(2-phenylacetamide)] |  | > 20 µM | 
O=C(Cc1ccc(Cl)cc1)NC(NC(=O)Cc1ccc(Cl)cc1)c1ccccc1 [Compound 21, N,N′-(phenylmethylene)bis(2-(4-chlorophenyl)acetamide)] |  | > 20 µM | 
O=C(Cc1ccc(Cl)cc1)NC(NC(=O)Cc1ccc(Cl)cc1)c1ccc(F)cc1 [Compound 23, N,N′-((4-fluorophenyl)methylene)bis(2-(4-chlorophenyl)acetamide)] |  | > 20 µM | 
O=C(Cc1ccc(Cl)cc1)NC(NC(=O)Cc1ccc(Cl)cc1)c1ccc(C(F)(F)F)cc1 [Compound 28, N,N′-((4-(trifluoromethyl)phenyl)methylene)bis(2-(4-chlorophenyl)acetamide)] | >198 | 0.101 µM | 
O=C(Cc1ccc(Cl)cc1)NC(NC(=O)Cc1ccc(Cl)cc1)c1ccc([N+](=O)[O-])cc1 [Compound 29, N,N′-((4-nitrophenyl)methylene)bis(2-(4-chlorophenyl)acetamide)] |  | > 20 µM | 
O=C(Cc1ccc(C(F)(F)F)cc1)NC(NC(=O)Cc1ccc(C(F)(F)F)cc1)c1ccccc1 [Compound 30, N,N′-(phenylmethylene)bis(2-(4-(trifluoromethyl)phenyl)acetamide)] |  | > 20 µM | 
O=C(Cc1ccc(C(F)(F)F)cc1)NC(NC(=O)Cc1ccc(C(F)(F)F)cc1)c1ccccc1F [Compound 31, N,N′-((2-fluorophenyl)methylene)bis(2-(4-(trifluoromethyl)phenyl)acetamide)] |  | > 20 µM | 
O=C(Cc1ccc(C(F)(F)F)cc1)NC(NC(=O)Cc1ccc(C(F)(F)F)cc1)c1ccc(F)cc1 [Compound 32, N,N′-((4-fluorophenyl)methylene)bis(2-(4-(trifluoromethyl)phenyl)acetamide)] |  | > 20 µM | 
O=C(Cc1ccc(C(F)(F)F)cc1)NC(NC(=O)Cc1ccc(C(F)(F)F)cc1)c1ccc(Cl)cc1 [Compound 33, N,N′-((4-chlorophenyl)methylene)bis(2-(4-(trifluoromethyl)phenyl)acetamide)] |  | > 20 µM | 
Cc1ccc(C(NC(=O)Cc2ccc(C(F)(F)F)cc2)NC(=O)Cc2ccc(C(F)(F)F)cc2)cc1 [Compound 34, N,N′-(p-tolylmethylene)bis(2-(4-(trifluoromethyl)phenyl)acetamide)] |  | > 20 µM | 
COc1ccc(C(NC(=O)Cc2ccc(C(F)(F)F)cc2)NC(=O)Cc2ccc(C(F)(F)F)cc2)cc1 [Compound 35, N,N′-((4-methoxyphenyl)methylene)bis(2-(4-(trifluoromethyl)phenyl)acetamide)] |  | > 20 µM | 
O=C(Cc1ccc(C(F)(F)F)cc1)NC(NC(=O)Cc1ccc(C(F)(F)F)cc1)c1ccc(C(F)(F)F)cc1 [Compound 36] |  | > 20 µM | 
O=C(Cc1ccccc1)NC(Cc1ccccc1)NC(=O)Cc1ccccc1 [Compound 37, N,N′-(2-phenylethane-1,1-diyl)bis(2-phenylacetamide)] |  | > 20 µM | 
CCCCC(NC(=O)Cc1ccccc1)NC(=O)Cc1ccccc1 [Compound 40, N,N′-(pentane-1,1-diyl)bis(2-phenylacetamide)] |  | 36 µM | 
CCCCCC(NC(=O)Cc1ccccc1)NC(=O)Cc1ccccc1 [Compound 41, N,N′-(hexane-1,1-diyl)bis(2-phenylacetamide)] |  | 18.2 µM | 
CCN(CC)c1ccc(CN(C23CC4CC(CC(C4)C2)C3)S(=O)(=O)c2ccc(OC)cc2)cc1 [Compound 59, N-(3r)-Adamantan-1-yl)-N-(4-(diethylamino)benzyl)-4-methoxybenzenesulfonamide] |  | 0.137 µM | 
CCN(CC)c1ccc(CN(C23CC4CC(CC(C4)C2)C3)S(=O)(=O)c2ccc(C(C)C)cc2)cc1 [Compound 62, N-((3s,5s,7s)-Adamantan-1-yl)-N-(4-(diethylamino)benzyl)-4-isopropylbenzenesulfonamide] |  |  | 0.457 µM
CCCCCCCN(Cc1ccc(N(CC)CC)cc1)S(=O)(=O)c1ccc(OC(C)C)cc1 [Compound 71, N-(4-(Diethylamino)benzyl)-N-heptyl-4-isopropoxybenzenesulfonamide] |  | > 20 µM | 

The next lines start with results.

SI: selectivity index for CB2 | Ki [1] | SMILES | Ki
 | 3.08 µM | O=C(Cc1ccccc1)NC(NC(=O)Cc1ccccc1)c1ccc(Cl)cc1 [Compound 6, N,N′-((4-chlorophenyl)methylene)bis(2-phenylacetamide)] | 
>26 | 0.783 µM | COc1ccc(C(NC(=O)Cc2ccccc2)NC(=O)Cc2ccccc2)cc1 [Compound 10, N,N′-((4-methoxyphenyl)methylene)bis(2-phenylacetamide)] | 
 | 11.8 µM | O=C(Cc1ccccc1)NC(NC(=O)Cc1ccccc1)c1ccccc1C(F)(F)F [Compound 13, N,N′-((2-(trifluoromethyl)phenyl)methylene)bis(2-phenylacetamide)] | 
>34 | 0.596 µM | O=C(Cc1ccccc1)NC(NC(=O)Cc1ccccc1)c1ccc(C(F)(F)F)cc1 [Compound 14, N,N′-((4-(trifluoromethyl)phenyl)methylene)bis(2-phenylacetamide)] | 
>90 | 0.221 µM | CCCCN(CCCC)c1ccc(C(NC(=O)Cc2ccccc2)NC(=O)Cc2ccccc2)cc1 [Compound 18, N,N′-((4-(dibutylamino)phenyl)methylene)bis(2-phenylacetamide)] | 
>34 | 0.595 µM | O=C(Cc1ccccc1)NC(NC(=O)Cc1ccccc1)c1ccc(N2CCCCC2)cc1 [Compound 19, N,N′-((4-(piperidin-1-yl)phenyl)methylene)bis(2-phenylacetamide)] | 
 | 10.8 µM | O=C(Cc1ccc(Cl)cc1)NC(NC(=O)Cc1ccc(Cl)cc1)c1ccccc1F [Compound 22, N,N′-((2-fluorophenyl)methylene)bis(2-(4-chlorophenyl)acetamide)] | 
>130 | 0.154 µM | O=C(Cc1ccc(Cl)cc1)NC(NC(=O)Cc1ccc(Cl)cc1)c1ccc(Cl)cc1 [Compound 24, N,N′-((4-chlorophenyl)methylene)bis(2-(4-chlorophenyl)acetamide)] | 
>43 | 0.462 µM | Cc1ccc(C(NC(=O)Cc2ccc(Cl)cc2)NC(=O)Cc2ccc(Cl)cc2)cc1 [Compound 25, N,N′-(p-tolylmethylene)bis(2-(4-chlorophenyl)acetamide)] | 
>65 | 0.31 µM | COc1ccc(C(NC(=O)Cc2ccc(Cl)cc2)NC(=O)Cc2ccc(Cl)cc2)cc1 [Compound 26, N,N′-((4-methoxyphenyl)methylene)bis(2-(4-chlorophenyl)acetamide)] | 
>127 | 0.158 µM | O=C(Cc1ccc(Cl)cc1)NC(NC(=O)Cc1ccc(Cl)cc1)c1ccccc1C(F)(F)F [Compound 27, N,N′-((2-(trifluoromethyl)phenyl)methylene)bis(2-(4-chlorophenyl)acetamide)] | 
 | 5.68 µM | O=C(Cc1ccccc1)NC(/C=C/c1ccccc1)NC(=O)Cc1ccccc1 [Compound 39, (E)-N,N′-(3-phenylprop-2-ene-1,1-diyl)bis(2-phenylacetamide)] | 
>29 | 0.688 µM | CCN(CC)c1ccc(C(NC(=O)c2ccccc2)NC(=O)c2ccccc2)cc1 [Compound 49, N,N′-((4-(Diethylamino)phenyl)methylene)dibenzamide] | 
>109 | 0.182 µM | CCCCC(=O)NC(NC(=O)CCCC)c1ccc(N(CC)CC)cc1 [Compound 52, N,N′-((4-(diethylamino)phenyl)methylene)dipentanamide] | 
>800 | 0.025 µM | CCCCCC(=O)NC(NC(=O)CCCCC)c1ccc(N(CC)CC)cc1 [Compound 53, N,N′-((4-(diethylamino)phenyl)methylene)dihexanamide] | 
>136 | 0.146 µM | CCCCCCCC(=O)NC(NC(=O)CCCCCCC)c1ccc(N(CC)CC)cc1 [Compound 54, N,N′-((4-(diethylamino)phenyl)methylene)dioctanamide] | 
 | 0.638 µM | CCCCCCCC(=O)N(Cc1ccc(N(CC)CC)cc1)C12CC3CC(CC(C3)C1)C2 [Compound 64, N-((3s,5s,7s)-Adamantan-1-yl)-N-(4-(diethylamino)benzyl)octanamide] | 
 | 2.3 µM | CCCCCCCN(Cc1ccc(N(CC)CC)cc1)S(=O)(=O)c1cccc(C)c1 [Compound 68, N-(4-(Diethylamino)benzyl)-N-heptyl-3-methylbenzenesulfonamide] | 
 | 13 µM | CCCCCCCN(Cc1ccc(N(CC)CC)cc1)S(=O)(=O)c1ccc(C(C)C)cc1 [Compound 69, N-(4-(Diethylamino)benzyl)-N-heptyl-4-isopropylbenzenesulfonamide] | 
 | 5.19 µM | CCCCCCCN(Cc1ccc(N(CC)CC)cc1)S(=O)(=O)c1ccc(OC)cc1 [Compound 70, N-(4-(Diethylamino)benzyl)-N-heptyl-4-methoxybenzenesulfonamide] | 
